Reference: patent US20230242552A1, “Nitrogen-Containing Heterocyclic Compound, Preparation Method Therefor and Use Thereof” (280 Bio, Inc, priority 2022, published 2023)

How the values were obtained:
Settings in all cases: CellTiter Glo, 120 hours incubation
[1] = test system: SW480 (colon cancer cell lines with KRAS G12V mutation); test: Proliferation inhibition measured by CTG, SW480; format: cell-based
Procedure: (§1) NCI-H358 is a human non-small cell lung cancer cell line with KRAS G12C mutation; AGS is a gastric cancer cell line with KRAS G12D mutation; SW480 is a colon cancer cell lines with KRAS G12V mutation; A375 is a wild type malignant melanoma cell line. The proliferation inhibitory effect of the compounds on various mutations was evaluated by determining the proliferation inhibitory activity of the compounds on these cell lines.
(§2) The assay was conducted on either 384-well plates or 96-well plates. The procedures are as follows:
(§3) The cell suspensions were added to 384- or 96-well plates (384-well plate: 40 μL; 96-well plate: 100 μL) except for peripheral wells. The plates were incubated in a carbon dioxide incubator overnight. Prepared compounds (10 concentration gradients by serial 3-fold dilution) were added to the wells. The cell plates were incubated in a carbon dioxide incubator for 120 hours. CellTiter Glo reagent (384 well plate: 25 μL; 96 well plate: 100 μL) was added to the 384- or 96-well plates. The plates were shaken for 10 minutes away from light, and incubated for 10 minutes. The plates were read by EnVision system. Inhibition curves were plotted using XLFit and IC50 values were calculated. “IC50>10 μM” is denoted by “*”, “10 μM≥IC50>1 μM” is denoted by […] is denoted by “***”, “---” means no data.

[2] = test system: NCI-H358 (KRAS G12C mutation); test: Proliferation inhibition measured by CTG, NCI-H358; format: cell-based, human
Procedure: as §1, §2, §3

[3] = test system: AGS (gastric cancer cell line with KRAS G12D mutation); test: Proliferation inhibition measured by CTG, AGS; format: cell-based
Procedure: as §1, §2, §3

[4] = test system: A375 (wild type malignant melanoma cell line); test: Proliferation inhibition measured by CTG, A375; format: cell-based
Procedure: as §1, §2, §3

Row | IC50 ([1]; Homo sapiens, SW480, 120 h) [nM] | IC50 ([2]; Homo sapiens, NCI-H358, 120 h) [nM] | IC50 ([3]; 120 h) [nM] | IC50 ([4]; Homo sapiens, A-375, 120 h) [nM] | IC50 [1] [nM] | IC50 [3] [nM] | IC50 [2] [nM] | IC50 [4] [nM] | SMILES
1 | ≤ 1000 | ≤ 1000 | ≤ 1000 | ≤ 1000 |  |  |  |  | C[C@@H]1Cc2cncc(F)c2CN1c1nc(OC[C@@H]2CCCN2C)nc2c1CCN(c1cccc3cccnc13)C2 [Compound 32]
2 | 1000 to 10000 | 1000 to 10000 | 1000 to 10000 | > 10000 |  |  |  |  | C[C@H]1Cc2cncc(F)c2CN1c1nc(OC[C@@H]2CCCN2C)nc2c1CCN(c1cncc3ccccc13)C2 [Compound 13]
3 | ≤ 1000 | ≤ 1000 | ≤ 1000 | 1000 to 10000 |  |  |  |  | C[C@H]1Cc2cncc(F)c2CN1c1nc(OC[C@@H]2CCCN2C)nc2c1CCN(c1cccc3cccc(F)c13)C2 [Compound 15]
4 |  |  | ≤ 1000 | ≤ 1000 |  |  |  |  | C[C@@H]1Cc2cncc(F)c2CN1c1nc(OC[C@@H]2CCCN2C)nc2c1CCN(c1cncc3cccc(Cl)c13)C2 [Compound 34]
5 | 1000 to 10000 | 1000 to 10000 | ≤ 1000 | 1000 to 10000 |  |  |  |  | C[C@H]1Cc2cncc(F)c2CN1c1nc(OC[C@@H]2CCCN2C)nc2cc(-c3cccc4cccc(F)c34)ccc12 [Compound 21]
6 |  |  | ≤ 1000 |  |  |  |  |  | C[C@@H]1Cc2cncc(F)c2CN1c1nc(OC[C@@H]2CCCCN2C)nc2c(F)c(-c3cccc4cccc(F)c34)ncc12 [Compound 36]
7 | 1000 to 10000 | 1000 to 10000 | 1000 to 10000 | 1000 to 10000 |  |  |  |  | C[C@@H](CN(C)C)Oc1nc2c(c(N3Cc4c(F)cncc4C[C@@H]3C)n1)CCN(c1cccc3cccc(F)c13)C2 [Compound 26]
8 | ≤ 1000 | ≤ 1000 | ≤ 1000 | ≤ 1000 |  |  |  |  | C[C@H]1Cc2cncc(F)c2CN1c1nc(OC[C@@H]2CCCCN2C)nc2c1CCN(c1cccc3cccc(F)c13)C2 [Compound 12]
9 | ≤ 1000 | ≤ 1000 | ≤ 1000 | ≤ 1000 |  |  |  |  | C[C@@H]1Cc2cncc(F)c2CN1c1nc(OC[C@@H]2CCCCN2C)nc2c1CCN(c1cccc3cccc(F)c13)C2 [Compound 28]
10 |  | 1000 to 10000 | ≤ 1000 | 1000 to 10000 |  |  |  |  | CC1Cc2cncc(F)c2CN1c1nc(OC[C@@H]2CCCN2C)nc2c1CO[C@H](c1cccc3cccc(Cl)c13)C2 (some centres unmarked) [Compound 11]
11 | ≤ 1000 | 1000 to 10000 | ≤ 1000 | 1000 to 10000 |  |  |  |  | C[C@H]1Cc2cncc(F)c2CN1c1nc(OC[C@@H]2CCCN2C)nc2cc(-c3cccc4cccc(Cl)c34)ccc12 [Compound 20]
12 | 1000 to 10000 | 1000 to 10000 | 1000 to 10000 | > 10000 |  |  |  |  | C[C@H]1Cc2cncc(F)c2CN1c1nc(OC[C@@H]2CCCN2C)nc2c1CCN(c1cccc3cnccc13)C2 [Compound 19]
13 | ≤ 1000 | ≤ 1000 | ≤ 1000 | 1000 to 10000 |  |  |  |  | C[C@@H]1Cc2cncc(F)c2CN1c1nc(O[C@@H](C)CN(C)C)nc2c1CCN(c1cccc3cccc(F)c13)C2 [Compound 29]
14 | 1000 to 10000 | 1000 to 10000 | ≤ 1000 | 1000 to 10000 |  |  |  |  | C[C@H]1Cc2cncc(F)c2CN1c1nc(OC[C@H]2CCCCN2C)nc2c1CCN(c1cccc3cccc(F)c13)C2 [Compound 23]
15 | 1000 to 10000 | 1000 to 10000 | 1000 to 10000 | 1000 to 10000 |  |  |  |  | C[C@H]1Cc2cncc(F)c2CN1c1nc(OC[C@@H]2CCCN2C)nc2c1CCN(c1ccnc3ccccc13)C2 [Compound 16]
16 | ≤ 1000 | ≤ 1000 | ≤ 1000 | 1000 to 10000 |  |  |  |  | C[C@H]1Cc2cncc(F)c2CN1c1nc(OC[C@H]2CCCN2C)nc2c1CCN(c1cccc3cccc(F)c13)C2 [Compound 22]
17 | 1000 to 10000 | 1000 to 10000 | 1000 to 10000 | > 10000 |  |  |  |  | C[C@H]1Cc2cncc(F)c2CN1c1nc(OC[C@H]2COCCN2C)nc2c1CCN(c1cccc3cccc(F)c13)C2 [Compound 24]
18 | ≤ 1000 | ≤ 1000 | ≤ 1000 | ≤ 1000 |  |  |  |  | C[C@@H]1Cc2cncc(F)c2CN1c1nc(OC[C@H]2CCCCN2C)nc2c1CCN(c1cccc3cccc(F)c13)C2 [Compound 30]
19 |  |  | ≤ 1000 | ≤ 1000 |  |  |  |  | C[C@@H]1Cc2cncc(F)c2CN1c1nc(OC[C@@H]2CCCN2C)nc2c1CCN(c1cccc3cccc(F)c13)C2 [Compound 35]

More lines, now with the values behind:

Row | SMILES | IC50 ([1]; Homo sapiens, SW480, 120 h) [nM] | IC50 ([2]; Homo sapiens, NCI-H358, 120 h) [nM] | IC50 ([3]; 120 h) [nM] | IC50 ([4]; Homo sapiens, A-375, 120 h) [nM] | IC50 [1] [nM] | IC50 [3] [nM] | IC50 [2] [nM] | IC50 [4] [nM]
20 | C#Cc1c(F)ccc2cc(O)cc(N3CCc4c(nc(OC[C@@H]5CCCN5C)nc4N4Cc5c(F)cncc5CC4C)C3)c12 (some centres unmarked) [Compound 7] | 1000 to 10000 | 1000 to 10000 | ≤ 1000 | 1000 to 10000 |  |  |  | 
21 | CC1Cc2cncc(F)c2CN1c1nc(OC[C@@H]2CCCN2C)nc2c1CCN(c1cccc3cccc(Cl)c13)C2 (single isomer, unassigned) [Compound 4-1] |  | 1000 to 10000 |  | 1000 to 10000 | 1000 to 10000 | ≤ 1000 |  | 
22 | CC1Cc2cncc(F)c2CN1c1nc(OC[C@@H]2CCCN2C)nc2c1CCN(c1cc(O)cc3cccc(Cl)c13)C2 (some centres unmarked) [Compound 5-1] |  | ≤ 1000 |  | ≤ 1000 |  |  |  | 
23 | CC1Cc2cncc(F)c2CN1c1nc(OC[C@@H]2CCCN2C)nc2c1CO[C@H](c1cccc3cccc(Cl)c13)C2 (single isomer, unassigned) [Compound 11-2] |  |  |  |  |  | ≤ 1000 | 1000 to 10000 | 1000 to 10000
24 | CC1Cc2cnccc2CN1c1nc(OC[C@@H]2CCCN2C)nc2c1CCN(c1cccc3cccc(Cl)c13)C2 (some centres unmarked) [Compound 3-2] |  |  |  |  | ≤ 1000 | ≤ 1000 | ≤ 1000 | ≤ 1000
25 | CC1Cc2cncc(F)c2CN1c1nc(OC[C@@H]2CCCCN2C)nc2c1CCN(c1cccc3cccc(Cl)c13)C2 (some centres unmarked) [Compound 9-1] | ≤ 1000 | ≤ 1000 | ≤ 1000 | ≤ 1000 |  |  |  | 
26 | CC1Cc2cnccc2CN1c1nc(OC[C@@H]2CCCN2C)nc2c1CCN(c1cc(O)cc3cccc(Cl)c13)C2 (some centres unmarked) [Compound 6] | ≤ 1000 |  | ≤ 1000 |  |  |  |  | 
27 | CC1Cc2cnccc2CN1c1nc(OC[C@@H]2CCCN2C)nc2c1CCN(c1cccc3cccc(Cl)c13)C2 (some centres unmarked) [Compound 3] |  |  |  |  | ≤ 1000 | ≤ 1000 | ≤ 1000 | ≤ 1000
28 | CC1Cc2cncc(F)c2CN1c1nc(OC[C@@H]2CCCN2C)nc2c1CCN(c1cc(O)cc3cccc(Cl)c13)C2 (some centres unmarked) [Compound 5-2] |  |  |  |  |  |  | ≤ 1000 | ≤ 1000
29 | CN1CCC[C@H]1COc1nc2c(c(N3CCc4cnccc4C3)n1)CCN(c1cccc3cccc(Cl)c13)C2 [Compound 1] |  | ≤ 1000 |  | ≤ 1000 |  |  |  | 
30 | CC1Cc2cncc(F)c2CN1c1nc(OC[C@@H]2CCCN2C)nc2c1CCN(c1cc(O)cc3cccc(Cl)c13)C2 (some centres unmarked) [Compound 5] | ≤ 1000 |  | ≤ 1000 |  |  |  |  | 
31 | CC1Cc2cncc(F)c2CN1c1nc(OC[C@@H]2CCCCN2C)nc2c1CCN(c1cccc3cccc(Cl)c13)C2 (some centres unmarked) [Compound 9-2] |  |  |  |  | ≤ 1000 | ≤ 1000 | ≤ 1000 | ≤ 1000
32 | CC1Cc2cncc(F)c2CN1c1nc(OC[C@@H]2CCCN2C)nc2c1CO[C@H](c1cccc3cccc(Cl)c13)C2 (single isomer, unassigned) [Compound 11-1] |  |  |  |  |  | 1000 to 10000 | 1000 to 10000 | 1000 to 10000
33 | COc1cc2c(cn1)CCN(c1nc(OC[C@@H]3CCCN3C)nc3c1CCN(c1cccc4cccc(Cl)c14)C3)C2 [Compound 2] |  | 1000 to 10000 | 1000 to 10000 | 1000 to 10000 |  |  |  | 
34 | CC1Cc2cncc(F)c2CN1c1nc(OC[C@@H]2CCCN2C)nc2c1CCN(c1cccc3cccc(Cl)c13)C2 (some centres unmarked) [Compound 4] | ≤ 1000 |  | ≤ 1000 |  |  |  |  | 
